Key:
HeLa [1] = experiment: Concentration for low cytotoxic activity against HeLa cell line; Range is 50-100 uM; assay type: functional, cell-based; settings: Homo sapiens
MOLT-3 [2] = experiment: Concentration for low cytotoxic activity against MOLT-3 cell line; Range is 50-100 uM; assay type: functional, cell-based; settings: Homo sapiens
MDA-MB-231 [3] = experiment: Concentration for low cytotoxic activity against MDA-MB-231 cell line; Range is 50-100 uM; assay type: functional, cell-based; settings: Homo sapiens
L132 [4] = experiment: Concentration for low cytotoxic activity against L-132 cell line; Range is 50-100 uM; assay type: functional, cell-based; settings: Homo sapiens
MOLT-3 [5] = experiment: Percent reduction in cell viability of MOLT-3 cells 48 hr after incubation with the compound; assay type: functional, Homo sapiens
MDA-MB-231 [6] = experiment: Percent reduction in cell viability of MDA-MB-231 cells 48 hr after incubation with compound; assay type: functional, Homo sapiens
HeLa [7] = experiment: Cytotoxic effect of compound measured as cell density of HeLa cells 72 hrs after incubation with compound compared to a initial density of […] cells/mL; assay type: functional, Homo sapiens
MDA-MB-231 [8] = experiment: Percent reduction in cell viability of MDA-MB-231 cells 72 hr after incubation with compound; assay type: functional, Homo sapiens
MOLT-3 [9] = experiment: Percent reduction in cell viability of MOLT-3 cells 72 hr after incubation with the compound; assay type: functional, Homo sapiens
HeLa [10] = experiment: Percent reduction in cell viability of HeLa cells 72 hr after incubation with compound; assay type: functional, Homo sapiens
HeLa [11] = experiment: Percent reduction in cell viability of HeLa cells 72 hr after incubation with 100 uM of compound; assay type: functional, Homo sapiens
L132 [12] = experiment: Percent reduction in cell viability of L-132 cells 72 hr after incubation with 100 uM of compound; assay type: functional, Homo sapiens
MOLT-3 [13] = experiment: Percent reduction in cell viability of MOLT-3 cells 72 hr after incubation with 100 uM of compound; assay type: functional, Homo sapiens
MOLT-3 [14] = experiment: Percent reduction in cell viability of MOLT-3 cells 72 hr after incubation with 50 uM of compound; assay type: functional, Homo sapiens

## O=C(O)/C=C/c1ccc(O)c(OO)c1
HeLa [1]
  Concentration: 100 µM
MOLT-3 [2]
  Concentration: 100 µM
MDA-MB-231 [3]
  Concentration: 100 µM
L132 [4]
  Concentration: 100 µM

## O=C(O)CCc1cc(O)c(O)c(O)c1
MOLT-3 [5]
  Reduction: 45%
MDA-MB-231 [6]
  Reduction: 55%

## O=C(O)CCc1ccc(O)c(O)c1 [DIHYDROCAFFEIC ACID]
HeLa [7]
  Cell density: 500000 cells ml-1

## O=C(O)c1cc(O)c(O)c(O)c1 [GALLIC ACID]
MDA-MB-231 [8]
  Reduction: 65%
MOLT-3 [9]
  Reduction: 50%
HeLa [10]
  Reduction: 74%

## O=C(O)Cc1cc(O)c(O)c(O)c1
HeLa [11]
  Reduction: 80%
MDA-MB-231 [8]
  Reduction: 60%
L132 [12]
  Reduction: 50%
MOLT-3 [13]
  Reduction: 47%

## O=C(O)Cc1ccc(O)c(O)c1 [3,4-DIHYDROXYPHENYLACETIC ACID]
MOLT-3 [14]
  Reduction: 75%

Reference: ChEMBL document CHEMBL1144912, “Anticancer activity of phenolic acids of natural or synthetic origin: a structure-activity study” (2003)
